Data on four compounds can be found in patent US11135234B2, “Effective aminoglycoside antibiotic for multidrug-resistant bacteria” (MICROBIAL CHEMISTRY RESEARCH FOUNDATION, priority 2015, dated 2021).

In brackets after ≈: the same amount, converted by molar mass.

For one assay, the system named is S. marcescens TH-0447. As to the kind of experiment: MIC, agar plate dilution method, S. marcescens TH-0447. It counts as cell-based, Serratia marcescens. To be noted: for MIC: Serratia marcescens, TH0447, S. marcescens TH-0447, AMK-resistant, read-out: minimal inhibitory concentration (MIC); for minimal inhibitory concentration (MIC): S. marcescens TH-0447, AMK-resistant. The method, boiled down: (§1)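 Read-out is the lowest compound concentration inhibiting growth (MIC, μg/mL), obtained by the agar plate dilution procedure of the Japan Society of Chemotherapy.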

In another assay the test system is E. coli JM109/pMW218. Put plainly: MIC, agar plate dilution method, E. coli JM109/pMW218. It counts as cell-based, Escherichia coli. To be noted: for MIC: Escherichia coli, JM109/PMW218, E. coli JM109/pMW218, Sensitive bacterium, read-out: minimal inhibitory concentration (MIC); for minimal inhibitory concentration (MIC): E. coli JM109/pMW218, Sensitive bacterium. The method, boiled down: as §1

In the next assay the test system is S. aureus RN4220/pMS520. As to the kind of experiment: MIC, agar plate dilution method, S. aureus RN4220/pMS520. Type of assay: cell-based, Staphylococcus aureus. Conditions: for MIC: Staphylococcus aureus, MRSA, read-out: minimal inhibitory concentration (MIC), S. aureus RN4220/pMS520, MRSA; for minimal inhibitory concentration (MIC): S. aureus RN4220/pMS520, MRSA. Summed up: as §1

A further assay concerns P. aeruginosa PAO1. Put plainly: MIC, agar plate dilution method, P. aeruginosa PAO1. It counts as cell-based, Pseudomonas aeruginosa. To be noted: for MIC: Pseudomonas aeruginosa, PAO1, P. aeruginosa PAO1, Sensitive bacterium, read-out: minimal inhibitory concentration (MIC); for minimal inhibitory concentration (MIC): P. aeruginosa PAO1, Sensitive bacterium. The method, boiled down: as §1

Another assay deals with P. aeruginosa PAO1/GN315. As to the kind of experiment: MIC, agar plate dilution method, P. aeruginosa PAO1/GN315. Conditions: for MIC: Pseudomonas aeruginosa, read-out: minimal inhibitory concentration (MIC), P. aeruginosa PAO1/GN315, AMK-resistant; for minimal inhibitory concentration (MIC): P. aeruginosa PAO1/GN315, AMK-resistant. It counts as cell-based, Pseudomonas aeruginosa. The method, boiled down:
as §1

Assay [1] has as its system K. pneumoniae ATCC BAA-1705. Put plainly: MIC, agar plate dilution method, K. pneumoniae ATCC BAA-1705. Conditions: for MIC: Klebsiella pneumoniae, ATCCBAA1705, K. pneumoniae ATCC BAA-1705, KPC-producing strain, read-out: minimal inhibitory concentration (MIC); for minimal inhibitory concentration (MIC): K. pneumoniae ATCC BAA-1705, KPC-producing strain. It counts as cell-based, Klebsiella pneumoniae. The method, boiled down: as §1

The subject of another assay is P. aeruginosa MSC17707. Put plainly: MIC, agar plate dilution method, P. aeruginosa MSC17707. It counts as cell-based, Pseudomonas aeruginosa. To be noted: for MIC: Pseudomonas aeruginosa, MSC17707, P. aeruginosa MSC17707, AMK-resistant, read-out: minimal inhibitory concentration (MIC); for minimal inhibitory concentration (MIC): P. aeruginosa MSC17707, AMK-resistant. Summed up:
as §1

Assay [2] has as its system K. pneumoniae ATCC BAA-2146. As to the kind of experiment: MIC, agar plate dilution method, K. pneumoniae ATCC BAA-2146. It counts as cell-based, Klebsiella pneumoniae. To be noted: for MIC: Klebsiella pneumoniae, ATCCBAA2146, K. pneumoniae ATCC BAA-2146, NDM-producing strain, read-out: minimal inhibitory concentration (MIC); for minimal inhibitory concentration (MIC): K. pneumoniae ATCC BAA-2146, NDM-producing strain. Summed up: as §1

The subject of another assay is E. faecium ATCC19434. Put plainly: MIC, agar plate dilution method, E. faecium ATCC19434. It counts as cell-based, Enterococcus faecium. To be noted: for MIC: Enterococcus faecium, ATCC19434, E. faecium ATCC19434, read-out: minimal inhibitory concentration (MIC); for minimal inhibitory concentration (MIC): E. faecium ATCC19434. Summed up: as §1
In assay [3] the test system is A. baumannii ATCC BAA-1710. Put plainly: MIC, agar plate dilution method, A. baumannii ATCC BAA-1710. Conditions: for MIC: Acinetobacter baumannii, ATCCBAA1710, A. baumannii ATCC BAA-1710, MDRA, read-out: minimal inhibitory concentration (MIC); for minimal inhibitory concentration (MIC): A. baumannii ATCC BAA-1710, MDRA. Type of assay: cell-based, Acinetobacter baumannii. The method, boiled down: as §1

The next assay concerns S. aureus MF490. As to the kind of experiment: MIC, agar plate dilution method, S. aureus MF490. To be noted: for MIC: Staphylococcus aureus, MRSA, read-out: minimal inhibitory concentration (MIC); for minimal inhibitory concentration (MIC): S. aureus MF490, MRSA. Type of assay: cell-based, Staphylococcus aureus. Summed up: as §1
The next assay relates to S. marcescens GN6944. Put plainly: MIC, agar plate dilution method, S. marcescens GN6944. Type of assay: cell-based, Serratia marcescens. To be noted: S. marcescens GN6944, GM-resistant; for MIC: Serratia marcescens, read-out: minimal inhibitory concentration (MIC). Summed up: as §1
The next assay deals with P. aeruginosa MSC01035. As to the kind of experiment: MIC, agar plate dilution method, P. aeruginosa MSC01035. Type of assay: cell-based, Pseudomonas aeruginosa. Conditions: P. aeruginosa MSC01035, ABK-resistant; for MIC: Pseudomonas aeruginosa, read-out: minimal inhibitory concentration (MIC). Summed up:
as §1

The subject of a further assay is S. aureus RN4220. Put plainly: MIC, agar plate dilution method, S. aureus RN4220. To be noted: for MIC: Staphylococcus aureus, RN4220, S. aureus RN4220, Sensitive bacterium, read-out: minimal inhibitory concentration (MIC); for minimal inhibitory concentration (MIC): S. aureus RN4220, Sensitive bacterium. Type of assay: cell-based, Staphylococcus aureus. The method, boiled down: as §1

In the case of `CNC1C(O[C@H]2OC(CF)[C@@H](N)[C@H](O)C2O)O[C@H]2CC(N)[C@@H](O[C@@H]3C(N)C[C@@H](N)C(O)[C@H]3O)OC2C1O` (some centres unmarked) [Compound J4, 6″-deoxy-6″-fluoroapramycin], the MIC is 16 µg/mL (≈ 29.5 µM) in the assay with S. marcescens TH-0447; 2 µg/mL (≈ 3.69 µM) in the assay with E. coli JM109/pMW218; 4 µg/mL (≈ 7.39 µM) in the assay on S. aureus RN4220/pMS520; 8 µg/mL (≈ 14.8 µM) in the assay on P. aeruginosa PAO1; 8 µg/mL (≈ 14.8 µM) with P. aeruginosa PAO1/GN315; 2 µg/mL (≈ 3.69 µM) in [1]. In addition, the MIC in the assay with P. aeruginosa MSC17707 came out at 16 µg/mL (≈ 29.5 µM); in assay [2], 2 µg/mL (≈ 3.69 µM); in the assay on E. faecium ATCC19434, 32 µg/mL (≈ 59.1 µM); in assay [3] it was 32 µg/mL (≈ 59.1 µM); with S. aureus MF490 it was 16 µg/mL (≈ 29.5 µM); in the assay with S. marcescens GN6944, 16 µg/mL (≈ 29.5 µM). For the same compound, the MIC with P. aeruginosa MSC01035 amounted to 16 µg/mL (≈ 29.5 µM); with S. aureus RN4220, 8 µg/mL (≈ 14.8 µM).
As for `CNC1C(O[C@H]2OC(CO)[C@@H](NC(=N)N)[C@H](O)C2O)O[C@H]2CC(N)[C@@H](O[C@H]3CC[C@H](N)CC3N)OC2C1O` (some centres unmarked) [Compound T2-e, 4″-deamino-5,6-dideoxy-4″-guanidinoapramycin], the MIC in the assay on S. marcescens TH-0447 worked out at 4 µg/mL (≈ 7.28 µM); with E. coli JM109/pMW218 it was 0.5 µg/mL (≈ 0.91 µM); in the assay on S. aureus RN4220/pMS520 it was 0.5 µg/mL (≈ 0.91 µM); in the assay on P. aeruginosa PAO1, 4 µg/mL (≈ 7.28 µM); in the assay on P. aeruginosa PAO1/GN315, 4 µg/mL (≈ 7.28 µM); in assay [1] it was 1 µg/mL (≈ 1.82 µM). Besides, the MIC with P. aeruginosa MSC17707 was 4 µg/mL (≈ 7.28 µM); in assay [2] it was 0.5 µg/mL (≈ 0.91 µM); with E. faecium ATCC19434, 4 µg/mL (≈ 7.28 µM); in [3], 4 µg/mL (≈ 7.28 µM); in the assay on S. aureus MF490 it was 2 µg/mL (≈ 3.64 µM); in the assay with S. marcescens GN6944 it was 2 µg/mL (≈ 3.64 µM). The MIC in the assay with P. aeruginosa MSC01035 was found to be 8 µg/mL (≈ 14.6 µM); in the assay on S. aureus RN4220, 1 µg/mL (≈ 1.82 µM).
For `CN[C@@H]1[C@@H](O[C@H]2O[C@H](CO)[C@@H](N)[C@H](O)[C@H]2O)O[C@H]2C[C@@H](N)[C@@H](O[C@H]3[C@H](N)[C@@H](O)[C@H](N)C[C@@H]3N)O[C@@H]2[C@@H]1O` [Compound E3, 5-amino-5-deoxyapramycin], the “minimal inhibitory concentration (MIC)” value with S. marcescens TH-0447 came to 16 µg/mL (≈ 29.7 µM); in the assay with E. coli JM109/pMW218, 4 µg/mL (≈ 7.43 µM); with S. aureus RN4220/pMS520 it was 8 µg/mL (≈ 14.9 µM); with P. aeruginosa PAO1, 16 µg/mL (≈ 29.7 µM); with P. aeruginosa PAO1/GN315, 16 µg/mL (≈ 29.7 µM); in [1], 4 µg/mL (≈ 7.43 µM). For the same compound, the “minimal inhibitory concentration (MIC)” value in the assay with P. aeruginosa MSC17707 was found to be 16 µg/mL (≈ 29.7 µM); in assay [2], 4 µg/mL (≈ 7.43 µM); in the assay on E. faecium ATCC19434, 64 µg/mL (≈ 119 µM); in assay [3], 16 µg/mL (≈ 29.7 µM); with S. aureus MF490, 16 µg/mL (≈ 29.7 µM); in the assay on S. marcescens GN6944 it was 16 µg/mL (≈ 29.7 µM). Also, the “minimal inhibitory concentration (MIC)” value is 16 µg/mL (≈ 29.7 µM) in the assay with P. aeruginosa MSC01035 and 8 µg/mL (≈ 14.9 µM) with S. aureus RN4220.
In the case of “4″-N-(trans-1,4-4-aminocyclohexyl)apramycin [Compound A4-g]”, the “minimal inhibitory concentration (MIC)” value with S. marcescens TH-0447 came out at 16 µg/mL; in the assay with E. coli JM109/pMW218, 2 µg/mL; in the assay on S. aureus RN4220/pMS520, 4 µg/mL; in the assay with P. aeruginosa PAO1 it was 16 µg/mL; with P. aeruginosa PAO1/GN315, 16 µg/mL; in [1], 2 µg/mL. Moreover, the “minimal inhibitory concentration (MIC)” value in the assay on P. aeruginosa MSC17707 came out at 32 µg/mL; in assay [2], 2 µg/mL; in the assay on E. faecium ATCC19434 it was 32 µg/mL; in assay [3], 32 µg/mL; with S. aureus MF490, 16 µg/mL; with S. marcescens GN6944 it was 16 µg/mL. The “minimal inhibitory concentration (MIC)” value with P. aeruginosa MSC01035 was 32 µg/mL; with S. aureus RN4220 it was 4 µg/mL.
